Data: patent US4043993A, “New pentapeptides and methods for their production” (Parke, Davis & Company, priority 1976, dated 1977)
Values joined by “and” are separate entries in the source; they are usually repeats but may differ in a detail not shown here. Identical values can stand only once. No end group written: not given here.

System: LRF (luteinizing hormone release factor) induced luteinizing hormone (LH) release
Assay: LRF antagonist activity in vitro in rat anterior pituitary cell cultures
Type: cell-based
Text: Pentapeptides of this invention were screened for LRF antagonist activity in vitro using rat anterior pituitary cell cultures as described by Vale et. al. [Endocrinology, 91, 562 (1972)]. The inhibition of LRF (luteinizing hormone release factor) induced luteinizing hormone (LH) release into the culture medium is the endpoint in this in vitro bioassay.

[1] = Molar Conc. 1×10^-6, LRF Control 2.5×10^-10
[2] = Molar Conc. 1×10^-7, LRF Control 3.5×10^-10
[3] = Molar Conc. 2.5×10^-7, LRF Control 3.5×10^-10
[4] = Molar Conc. 6×10^-7, LRF Control 3.5×10^-10
[5] = Molar Conc. 6×10^-8, LRF Control 3.5×10^-10

Row | Substance | LH Value (LRF alone (LRF Control), Molar Conc. 2.5×10^-10) [ng/mL] | LH Value (LRF alone (LRF Control), Molar Conc. 3.5×10^-10) | % LH Release Inhibition [1] [%] | LH Value [1] [ng/mL] | % LH Release Inhibition [2] [%] | LH Value [2] [ng/mL] | % LH Release Inhibition [3] [%] | LH Value [3] [ng/mL] | % LH Release Inhibition [4] [%] | LH Value [4] [ng/mL] | % LH Release Inhibition [5] [%] | LH Value [5] [ng/mL]
1 | LRF: luteinizing hormone releasing factor, also referred to as luteinizing hormone releasing hormone, or LH-RH; stimulates secretion of luteinizing hormone (QHWSYGLRPG; ends and bridges not checked; UniProt P01148 24-33, looked up) [reference compound] | 38.98 | 33.78 ng/mL and 41.70 ng/mL and 58.17 ng/mL and 42.57 ng/mL | – | – | – | – | – | – | – | – | – | –
2 | N-Benzyloxycarbonyl-D-2-azetidinecarbonyl-N^im -benzyl-L-histidyl-O-benzyl-L-tyrosyl-O-benzyl-L-seryl-D-alanine methyl ester | – | – | 102 | 5.72 | 53 | 33.60 | 78 | 22.34 | 89 | 17.18 | 29 | 44.92
